Results on three compounds are retold here after ChEMBL document CHEMBL5649166, “RIP3 induces apoptosis independent of pronecrotic kinase activity” (Mol Cell, 2014).

For series [1], the target named is Serine/threonine-protein kinase PLK3 (Homo sapiens) (UniProt Q9H4B4). The series is described as follows: Residual activity of human PLK3 using casein as substrate at 1 uM in presence of 32P-ATP by Hotspot assay relative to control.
Series [2] deals with Tyrosine-protein kinase Lyn (Homo sapiens) (UniProt P07948). As to the kind of experiment: Inhibition of human LYN using poly[Glu:Tyr] (4:1) as substrate at 1 uM in presence of 32P-ATP by Hotspot assay relative to control; values are per cent of control.
Tyrosine-protein kinase Lyn (Homo sapiens), sequence (P07948 2-512 limits assumed): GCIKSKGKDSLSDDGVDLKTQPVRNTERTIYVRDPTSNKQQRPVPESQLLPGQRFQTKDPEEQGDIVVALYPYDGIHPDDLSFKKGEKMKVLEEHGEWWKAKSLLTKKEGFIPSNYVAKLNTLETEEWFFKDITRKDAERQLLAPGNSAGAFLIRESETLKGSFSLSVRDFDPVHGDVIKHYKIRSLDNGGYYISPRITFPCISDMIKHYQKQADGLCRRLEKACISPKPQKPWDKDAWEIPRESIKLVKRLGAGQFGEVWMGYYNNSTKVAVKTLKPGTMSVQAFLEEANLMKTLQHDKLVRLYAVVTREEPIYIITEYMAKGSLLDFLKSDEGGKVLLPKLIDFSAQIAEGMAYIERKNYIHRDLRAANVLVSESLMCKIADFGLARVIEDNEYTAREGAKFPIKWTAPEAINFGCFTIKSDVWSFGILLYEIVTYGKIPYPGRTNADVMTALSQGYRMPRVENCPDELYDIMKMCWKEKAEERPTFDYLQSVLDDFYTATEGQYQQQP
Series [3] deals with Dual specificity tyrosine-phosphorylation-regulated kinase 1A (Homo sapiens) (UniProt Q13627). The series is described as follows: Residual activity of human DYRK1/DYRK1A using RRRFRPASPLRGPPK as substrate at 1 uM in presence of 32P-ATP by Hotspot assay relative to control.
For series [4], the target named is Calcium/calmodulin-dependent protein kinase type 1B (Homo sapiens) (UniProt Q6P2M8). The series is described as follows: Inhibition of human CAMK1b using KKALRRQETVDAL as substrate at 1 uM in presence of 32P-ATP by Hotspot assay relative to control; values are per cent of control.
Calcium/calmodulin-dependent protein kinase type 1B (Homo sapiens), sequence (Q6P2M8 whole entry): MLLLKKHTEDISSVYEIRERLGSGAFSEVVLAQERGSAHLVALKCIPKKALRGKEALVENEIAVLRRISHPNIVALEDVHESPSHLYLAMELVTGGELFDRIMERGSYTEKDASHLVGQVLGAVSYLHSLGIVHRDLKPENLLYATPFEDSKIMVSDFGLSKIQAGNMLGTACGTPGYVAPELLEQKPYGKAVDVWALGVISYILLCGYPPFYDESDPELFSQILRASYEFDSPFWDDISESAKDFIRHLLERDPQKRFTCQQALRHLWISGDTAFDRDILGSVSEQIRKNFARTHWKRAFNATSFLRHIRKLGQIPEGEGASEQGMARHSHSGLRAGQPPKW
The next series concerns BMDM. The series is described as follows: Inhibition of TNF-alpha induced necroptosis in mouse BMDM cells assessed as increase in cell viability at 0.04 to 1 uM incubated for 18 hrs in presence of zVAD and BV6 by Cell Titer-Glo luminescent cell viability assay. It is filed as functional, cell-based. The conditions noted are these: dose 0.04-1 µM. Background: ATP-based viability assays read luminescence as a measure of living cells.

Another series deals with MEF. As to the kind of experiment: Induction of apoptosis in RIP3-/- MEF cells transfected with human RIP3 incubated for 18 hrs by Cell Titer-Glo luminescent cell viability assay. The settings on record: mouse. The series is classed as toxicity, cell-based.
The target of series [5] is Tyrosine-protein kinase Blk (Homo sapiens) (UniProt P51451). The series is described as follows: Inhibition of human BLK using poly[Glu:Tyr] (4:1) as substrate at 1 uM in presence of 32P-ATP by Hotspot assay relative to control; values are per cent of control.
Tyrosine-protein kinase Blk (Homo sapiens), sequence (P51451 2-505 limits assumed): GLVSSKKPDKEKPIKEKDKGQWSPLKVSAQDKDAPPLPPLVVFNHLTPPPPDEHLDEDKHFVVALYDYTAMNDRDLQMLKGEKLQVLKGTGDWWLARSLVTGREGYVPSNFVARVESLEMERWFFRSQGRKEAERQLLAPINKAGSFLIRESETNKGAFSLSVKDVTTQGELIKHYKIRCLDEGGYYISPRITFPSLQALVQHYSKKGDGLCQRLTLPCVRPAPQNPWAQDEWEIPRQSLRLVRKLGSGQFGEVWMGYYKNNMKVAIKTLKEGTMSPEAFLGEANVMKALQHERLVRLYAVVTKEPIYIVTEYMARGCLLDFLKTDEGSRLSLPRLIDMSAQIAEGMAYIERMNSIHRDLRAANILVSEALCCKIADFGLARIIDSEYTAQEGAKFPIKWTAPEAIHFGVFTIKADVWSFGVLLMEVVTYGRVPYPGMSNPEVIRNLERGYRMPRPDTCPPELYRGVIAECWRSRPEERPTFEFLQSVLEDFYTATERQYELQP
Series [6] deals with Mitogen-activated protein kinase kinase kinase 14 (Homo sapiens) (UniProt Q99558). The series is described as follows: Inhibition of human NIK/MAP3K14 using at 1 uM in presence of 32P-ATP by Hotspot assay relative to control; values are per cent of control.
Mitogen-activated protein kinase kinase kinase 14 (Homo sapiens), sequence (Q99558 whole entry, looked up): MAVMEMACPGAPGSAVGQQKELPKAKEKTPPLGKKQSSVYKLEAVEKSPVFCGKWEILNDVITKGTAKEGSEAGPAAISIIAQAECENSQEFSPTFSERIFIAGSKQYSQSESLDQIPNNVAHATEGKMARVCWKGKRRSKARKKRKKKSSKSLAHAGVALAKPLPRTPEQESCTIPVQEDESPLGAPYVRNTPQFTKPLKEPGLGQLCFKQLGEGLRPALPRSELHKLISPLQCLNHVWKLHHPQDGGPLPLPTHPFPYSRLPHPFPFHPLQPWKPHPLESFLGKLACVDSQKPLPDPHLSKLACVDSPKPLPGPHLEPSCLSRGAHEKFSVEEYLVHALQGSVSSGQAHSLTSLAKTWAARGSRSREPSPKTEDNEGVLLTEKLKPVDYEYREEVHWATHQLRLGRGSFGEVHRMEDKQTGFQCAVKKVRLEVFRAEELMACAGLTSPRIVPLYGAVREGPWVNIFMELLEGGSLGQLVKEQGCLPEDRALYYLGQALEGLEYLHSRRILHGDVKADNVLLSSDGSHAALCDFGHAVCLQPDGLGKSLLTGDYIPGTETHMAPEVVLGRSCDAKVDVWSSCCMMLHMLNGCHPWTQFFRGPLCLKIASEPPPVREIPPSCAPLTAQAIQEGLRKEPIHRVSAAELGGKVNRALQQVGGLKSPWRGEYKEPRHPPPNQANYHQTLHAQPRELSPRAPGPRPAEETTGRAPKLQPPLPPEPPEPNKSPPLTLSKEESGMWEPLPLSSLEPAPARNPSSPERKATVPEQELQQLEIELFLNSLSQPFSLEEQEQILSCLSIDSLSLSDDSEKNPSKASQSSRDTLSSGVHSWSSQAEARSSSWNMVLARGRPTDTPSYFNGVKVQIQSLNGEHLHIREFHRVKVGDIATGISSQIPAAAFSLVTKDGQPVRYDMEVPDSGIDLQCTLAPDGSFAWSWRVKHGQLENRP
In series [7] the target is T1, Serine/threonine-protein kinase BRSK2 (Homo sapiens) (UniProt Q8IWQ3).
T1 sequence (whole entry): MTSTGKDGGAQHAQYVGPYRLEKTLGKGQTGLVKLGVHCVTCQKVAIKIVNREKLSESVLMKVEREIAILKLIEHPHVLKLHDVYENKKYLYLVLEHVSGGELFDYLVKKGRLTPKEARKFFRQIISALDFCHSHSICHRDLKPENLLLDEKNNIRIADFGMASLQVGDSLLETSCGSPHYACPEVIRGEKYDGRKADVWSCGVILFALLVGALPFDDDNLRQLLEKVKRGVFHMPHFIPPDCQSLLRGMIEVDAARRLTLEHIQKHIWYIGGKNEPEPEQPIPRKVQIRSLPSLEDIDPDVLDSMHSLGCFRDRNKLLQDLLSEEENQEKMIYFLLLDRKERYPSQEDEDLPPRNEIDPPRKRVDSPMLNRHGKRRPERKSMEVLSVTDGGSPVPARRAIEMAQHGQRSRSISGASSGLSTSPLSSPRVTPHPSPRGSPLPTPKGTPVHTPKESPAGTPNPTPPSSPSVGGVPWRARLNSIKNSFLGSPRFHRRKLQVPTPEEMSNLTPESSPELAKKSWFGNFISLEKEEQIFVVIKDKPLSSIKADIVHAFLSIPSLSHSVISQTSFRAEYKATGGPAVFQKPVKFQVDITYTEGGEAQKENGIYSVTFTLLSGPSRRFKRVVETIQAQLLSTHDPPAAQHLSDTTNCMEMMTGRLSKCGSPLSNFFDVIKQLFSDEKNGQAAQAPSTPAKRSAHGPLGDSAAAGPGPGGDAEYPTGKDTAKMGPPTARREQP
The series is described as follows: Inhibition of human BRSK2 using KKLNRTLSFAEPG as substrate at 1 uM in presence of 32P-ATP by Hotspot assay relative to control; values are per cent of control.

Series [8] addresses G protein-coupled receptor kinase 4 (Homo sapiens) (UniProt P32298). The series is described as follows: Inhibition of human GRK4 using casein as substrate at 1 uM in presence of 32P-ATP by Hotspot assay relative to control; values are per cent of control.
The target in series [9] is Death-associated protein kinase 1 (Homo sapiens) (UniProt P53355). The series is described as follows: Inhibition of human DAPK1 using KKLNRTLSFAEPG as substrate at 1 uM in presence of 32P-ATP by Hotspot assay relative to control; values are per cent of control.
Death-associated protein kinase 1 (Homo sapiens), sequence (P53355 whole entry, looked up): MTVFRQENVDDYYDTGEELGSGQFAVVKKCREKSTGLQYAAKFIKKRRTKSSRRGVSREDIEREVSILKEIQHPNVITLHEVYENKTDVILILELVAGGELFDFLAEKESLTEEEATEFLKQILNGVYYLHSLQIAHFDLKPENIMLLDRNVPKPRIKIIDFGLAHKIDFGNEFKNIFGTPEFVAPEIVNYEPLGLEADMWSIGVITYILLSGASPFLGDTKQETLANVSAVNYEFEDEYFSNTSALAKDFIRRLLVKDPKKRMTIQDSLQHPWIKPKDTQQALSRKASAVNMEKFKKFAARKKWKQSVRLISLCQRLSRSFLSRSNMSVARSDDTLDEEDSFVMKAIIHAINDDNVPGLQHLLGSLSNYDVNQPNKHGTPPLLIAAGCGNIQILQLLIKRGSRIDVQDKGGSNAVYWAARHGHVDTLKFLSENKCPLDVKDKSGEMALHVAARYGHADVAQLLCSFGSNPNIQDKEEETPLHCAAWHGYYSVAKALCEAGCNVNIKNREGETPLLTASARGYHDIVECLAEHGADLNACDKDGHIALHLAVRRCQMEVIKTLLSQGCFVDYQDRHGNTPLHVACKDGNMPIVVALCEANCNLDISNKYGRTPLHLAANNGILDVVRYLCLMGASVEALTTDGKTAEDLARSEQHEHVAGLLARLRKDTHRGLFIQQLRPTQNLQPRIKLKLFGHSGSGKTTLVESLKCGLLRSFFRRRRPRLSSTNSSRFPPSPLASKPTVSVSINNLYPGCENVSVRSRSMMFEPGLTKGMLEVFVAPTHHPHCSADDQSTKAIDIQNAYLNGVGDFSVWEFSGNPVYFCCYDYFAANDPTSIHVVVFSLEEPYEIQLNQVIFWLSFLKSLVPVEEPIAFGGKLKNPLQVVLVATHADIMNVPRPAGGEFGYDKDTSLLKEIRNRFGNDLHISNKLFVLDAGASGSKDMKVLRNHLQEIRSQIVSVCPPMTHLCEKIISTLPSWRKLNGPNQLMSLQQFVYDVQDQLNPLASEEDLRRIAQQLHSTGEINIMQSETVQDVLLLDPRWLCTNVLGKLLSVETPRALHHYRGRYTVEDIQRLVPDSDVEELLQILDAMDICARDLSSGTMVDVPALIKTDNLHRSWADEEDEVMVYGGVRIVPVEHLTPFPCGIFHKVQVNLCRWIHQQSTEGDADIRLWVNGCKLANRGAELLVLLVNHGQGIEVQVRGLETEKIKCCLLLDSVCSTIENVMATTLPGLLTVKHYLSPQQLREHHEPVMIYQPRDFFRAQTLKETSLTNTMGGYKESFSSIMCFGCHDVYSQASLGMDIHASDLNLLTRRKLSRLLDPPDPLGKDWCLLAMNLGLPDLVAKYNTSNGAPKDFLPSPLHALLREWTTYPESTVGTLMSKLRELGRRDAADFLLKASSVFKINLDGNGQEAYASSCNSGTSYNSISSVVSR
Series [10] deals with T2, Mitogen-activated protein kinase kinase kinase kinase 2 (Homo sapiens) (UniProt Q12851).
T2 sequence (whole entry): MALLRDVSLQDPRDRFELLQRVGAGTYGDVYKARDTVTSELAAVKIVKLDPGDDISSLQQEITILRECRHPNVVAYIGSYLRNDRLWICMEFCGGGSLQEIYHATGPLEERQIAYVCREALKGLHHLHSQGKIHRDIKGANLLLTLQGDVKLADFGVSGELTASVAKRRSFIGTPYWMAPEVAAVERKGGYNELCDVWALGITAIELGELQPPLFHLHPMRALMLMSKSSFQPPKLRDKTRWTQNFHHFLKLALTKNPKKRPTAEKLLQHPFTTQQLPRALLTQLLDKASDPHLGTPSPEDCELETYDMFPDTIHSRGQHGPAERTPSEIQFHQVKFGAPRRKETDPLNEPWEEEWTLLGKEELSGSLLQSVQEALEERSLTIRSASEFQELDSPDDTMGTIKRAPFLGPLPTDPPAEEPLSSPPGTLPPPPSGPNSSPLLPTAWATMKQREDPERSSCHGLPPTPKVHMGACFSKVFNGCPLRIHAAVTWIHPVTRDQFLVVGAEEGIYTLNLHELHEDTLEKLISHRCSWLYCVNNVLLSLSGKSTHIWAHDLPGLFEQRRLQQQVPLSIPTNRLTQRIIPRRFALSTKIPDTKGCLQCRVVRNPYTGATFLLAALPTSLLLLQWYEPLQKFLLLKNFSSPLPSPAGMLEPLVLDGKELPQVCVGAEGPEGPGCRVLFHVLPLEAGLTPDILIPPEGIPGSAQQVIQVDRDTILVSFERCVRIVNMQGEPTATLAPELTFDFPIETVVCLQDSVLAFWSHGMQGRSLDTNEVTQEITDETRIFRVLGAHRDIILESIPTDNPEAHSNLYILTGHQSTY
The series is described as follows: Inhibition of human GCK/MAP4K2 using myelin basic protein as substrate at 1 uM in presence of 32P-ATP by Hotspot assay relative to control; values are per cent of control.

The source made the active and inactive calls. The calls are words filed in the database; no cut-off is given here.

G protein-coupled receptor kinase 4 (Homo sapiens), sequence (P32298 whole entry, looked up): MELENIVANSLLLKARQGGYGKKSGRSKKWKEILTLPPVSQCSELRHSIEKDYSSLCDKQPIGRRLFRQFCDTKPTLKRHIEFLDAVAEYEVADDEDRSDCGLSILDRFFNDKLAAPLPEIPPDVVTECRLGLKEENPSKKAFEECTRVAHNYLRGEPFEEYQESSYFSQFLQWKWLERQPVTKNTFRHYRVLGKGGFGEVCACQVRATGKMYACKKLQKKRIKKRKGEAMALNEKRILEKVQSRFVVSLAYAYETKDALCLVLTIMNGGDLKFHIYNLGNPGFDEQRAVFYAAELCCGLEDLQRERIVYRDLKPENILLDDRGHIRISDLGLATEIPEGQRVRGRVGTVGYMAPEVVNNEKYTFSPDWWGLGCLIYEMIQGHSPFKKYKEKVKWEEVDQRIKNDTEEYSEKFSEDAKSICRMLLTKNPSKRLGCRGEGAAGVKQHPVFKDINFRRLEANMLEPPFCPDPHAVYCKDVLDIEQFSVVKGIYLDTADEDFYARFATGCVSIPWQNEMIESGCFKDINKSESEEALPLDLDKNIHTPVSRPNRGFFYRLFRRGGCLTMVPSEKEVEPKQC
Serine/threonine-protein kinase PLK3 (Homo sapiens), sequence (Q9H4B4 whole entry, looked up): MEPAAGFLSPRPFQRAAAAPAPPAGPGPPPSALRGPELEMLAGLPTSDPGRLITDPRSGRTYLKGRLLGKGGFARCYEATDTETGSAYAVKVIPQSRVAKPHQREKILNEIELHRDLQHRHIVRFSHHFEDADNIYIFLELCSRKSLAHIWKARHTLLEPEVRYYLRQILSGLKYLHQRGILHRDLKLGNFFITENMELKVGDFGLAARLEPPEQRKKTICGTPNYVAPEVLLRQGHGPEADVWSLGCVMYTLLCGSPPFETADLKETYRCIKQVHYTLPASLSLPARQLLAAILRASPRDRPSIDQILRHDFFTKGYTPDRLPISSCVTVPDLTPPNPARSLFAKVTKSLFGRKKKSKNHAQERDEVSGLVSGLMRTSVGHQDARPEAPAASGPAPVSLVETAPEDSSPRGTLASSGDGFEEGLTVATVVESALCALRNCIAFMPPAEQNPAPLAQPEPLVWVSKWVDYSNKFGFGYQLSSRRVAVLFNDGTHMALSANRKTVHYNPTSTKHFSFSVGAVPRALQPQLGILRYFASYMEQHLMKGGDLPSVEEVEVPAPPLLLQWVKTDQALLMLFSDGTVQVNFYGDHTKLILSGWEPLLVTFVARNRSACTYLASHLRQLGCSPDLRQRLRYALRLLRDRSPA

Turning to `CNC(=O)c1ccc2c(c1)ncn2-c1ccc(CC(=O)OC(C)(C)C)cc1`, the residual activity was 106% in [1]; 73.5% in series [2]; 99.4% in [3]; 90.2% in series [4]; 73.9% in series [5]; 95.3% in series [6]. Also, the residual activity in [7] was 92%; in series [8] it was 94.6%; in [9] it was 91.6%; in series [10], 91.8%. Further, the inhibition entry in the series with BMDM is “inactive”. The Activity entry in the series with MEF was “Toxic”.
Consider `Cc1cc(-c2cnc(N)c3c(-c4ccc5scnc5c4)csc23)n(C)n1`, for which the residual activity came to 91.7% in [1]; 17% in series [2]; 99.6% in series [3]; 98.5% in series [4]; 39.3% in [5]; 92.9% in series [6]. The residual activity amounted to 89% in series [7], 97.2% in series [8], 95.3% in [9] and 68.1% in [10]. In the series with BMDM, the inhibition entry was “Active”. The Activity result with MEF is on record as “Toxic”.
With `CC(C)S(=O)(=O)c1ccc2nccc(Nc3ccc4scnc4c3)c2c1`, the residual activity in [1] came to 102%; in series [2], 20%; in [3], 98.8%; in series [4], 87.8%; in series [5], 62.8%; in [6] it was 89.5%. Moreover, the residual activity in series [7] was 99.4%; in series [8] it was 100%; in series [9] it was 97%; in [10] it was 88.3%. Also, the inhibition result in the series with BMDM is “Active”. Besides, the Activity result in the series on MEF is “Toxic”.
